In US8895579B2, “Heterotricyclic AMPA receptor antagonists for treatment of epilepsy, pain, and other neurological disorders and diseases” (Northwestern University, priority 2010, dated 2014):
Where “and” joins values, the source holds several entries; their conditions need not be identical. Equal values may be shown once.

Experiments:
[1] = system: AMPA receptor EPSCs, CA1 pyramidal neurons; assay: AMPA receptor EPSCs at Schaffer collateral-CA1 synapses, acute hippocampal slices; type: cell-based, mouse; settings: 20 μM
Method: For recordings from acute hippocampal slices, brains from P15-21 C57Bl/6 mice were sliced transversely (350 μm thickness) in a sucrose slicing solution containing (in mM) 85 NACl, 2.5 KCl, 1.25 NaH2PO4, 25 NaHCO3, 25 glucose, 75 sucrose, 0.5 CaCl2, 4 MgCl2, 0.5 Na ascorbate, 10 μM DL-APV and 100 μM kynurenic acid (pH 7.3). After slicing, the solution was exchanged with an incubation solution containing (in mM) 125 NaCl, 2.4 KCl, 1.2 NaH2PO4, 25 NaHCO3, 25 glucose: 1 CaCl2, 2 MgCl2, 0.5 Na ascorbate, 10 μM DL-APV and 100 μM kynurenic acid (pH 7.3) that was bubbled continuously with CO2-balanced O2 (carbogen). […] Recordings in voltage clamp mode used the CsF/CsCl internal solution and carbogenated external recording solution containing (in mM) 120 NaCl, 2.4 KCl, 2 MgCl2, 1 CaCl2, 25 NaHCO3, 1.2 NaH2PO4, 25 glucose, 10 μM bicuculline methiodide, 50 μM PTX and 50 μM D-APV (pH 7.3). […] NMDA EPSCs were validated by addition of D-APV (50 μM) at the end of each recording. Hippocampal CA1 or CA3 pyramidal cells were voltage clamped at −70 mV and stimulated with a monopolar electrode either the stratum radiatum or stratum lucidum, respectively. IKM compounds were applied for 10 minutes and changes in the peak amplitudes of excitatory post-synaptic currents (EPSCs) and paired-pulse ratios were analyzed during the last two minutes of drug application. EPSC charge transfer, AP frequency, paired-pulse ratio and EPSC peak amplitude were analyzed with Mini-Analysis v6.03 (Synaptosoft, Decatur, Ga.) and Clampfit v10.0 (MDS, Sunnyvale, Calif.) software.

[2] = target: T1, GluA1 (Rattus norvegicus, UniProt P19490); assay: [3H]-AMPA radioligand binding, membranes of HEK293-T/17 cells expressing GluA1; settings: 100 μM; 20 nM [3H]-AMPA; 1 h at 4° C.
T1 construct: expressed in transfected cells; host or cells: HEK293-T/17 (CRL-11268)
Method: Radioligand binding. HEK293-T/17 cells were transfected with 5 μg of iGluR cDNA in 100 mm^2 culture dishes. Two days post transfection, the plates were washed twice with ice-cold Dulbecco's phosphate-buffered saline (DPBS) and then incubated with 50 mM Tris (pH 7.4) and 1 mM EDTA for three minutes on ice. Cells were collected and centrifuged for five minutes at 800 g at room temperature. The cell pellet was homogenized in 50 mM Tris (pH 7.4) containing 320 mM sucrose (homogenization buffer, HB) on ice using a glass dounce homogenizer and centrifuged at 4° C. for 10 minutes at 800 g. The supernatant, containing the membrane fragments, was saved and the remaining pellet containing nuclei and unbroken cells was resuspended in HB. This homogenization process was repeated two more times and after collection of the final resulting supernatant, the remaining pellet was discarded. The collected supernatants were centrifuged at 4° C. for 20 minutes at 20000 g and the resulting supernatant was discarded leaving a membrane-containing pellet. […] Non-specific binding was determined as the amount of radioligand bound in the presence of a saturating concentration of glutamate (1 mM). Total binding was determined as the amount of radioligand bound in the absence of any competing ligands minus the non-specific binding. […]

T1 sequence (P19490 19-907 isoform P19490-2 limits assumed): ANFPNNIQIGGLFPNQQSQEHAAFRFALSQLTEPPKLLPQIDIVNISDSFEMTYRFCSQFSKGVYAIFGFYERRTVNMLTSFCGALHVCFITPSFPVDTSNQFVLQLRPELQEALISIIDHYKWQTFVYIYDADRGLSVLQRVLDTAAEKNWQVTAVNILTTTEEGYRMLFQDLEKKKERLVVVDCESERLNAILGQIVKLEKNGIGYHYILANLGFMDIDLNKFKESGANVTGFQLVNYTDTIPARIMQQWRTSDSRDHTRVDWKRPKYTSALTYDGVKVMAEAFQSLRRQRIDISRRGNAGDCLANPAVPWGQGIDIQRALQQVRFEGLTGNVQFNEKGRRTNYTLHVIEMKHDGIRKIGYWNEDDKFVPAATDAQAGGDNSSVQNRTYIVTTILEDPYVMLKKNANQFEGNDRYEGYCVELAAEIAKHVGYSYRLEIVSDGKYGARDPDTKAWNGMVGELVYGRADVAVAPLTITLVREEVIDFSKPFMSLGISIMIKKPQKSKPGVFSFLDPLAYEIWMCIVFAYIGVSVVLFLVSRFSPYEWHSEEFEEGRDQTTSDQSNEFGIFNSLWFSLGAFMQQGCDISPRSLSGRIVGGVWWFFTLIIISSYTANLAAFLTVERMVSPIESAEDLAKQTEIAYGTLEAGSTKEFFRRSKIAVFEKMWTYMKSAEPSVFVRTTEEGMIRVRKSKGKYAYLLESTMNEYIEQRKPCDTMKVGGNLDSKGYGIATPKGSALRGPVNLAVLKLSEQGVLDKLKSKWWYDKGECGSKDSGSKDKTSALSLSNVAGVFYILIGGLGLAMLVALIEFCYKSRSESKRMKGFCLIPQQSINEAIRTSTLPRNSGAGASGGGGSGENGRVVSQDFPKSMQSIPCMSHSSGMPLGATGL

O=C(O)C[C@@]12O[C@H]3C=CCN[C@H]3C1CN[C@H]2C(=O)O (some centres unmarked) [IKM-159]
AMPA EPSC peak amplitude as percent of control peak amplitude [1]: 66±5% | reduction of mean amplitude of AMPA receptor EPSCs [1]: 34±5% | time synaptic amplitudes remained depressed after application [1]: > 10 min | mean AMPA receptor EPSC amplitude in presence of compound ([1]; control 560±20 pA): 370±40 pA | [3H]AMPA bound as percent of total (specific) binding in absence of competing ligand [2]: 135±23% and 134±23%
